# Patent publication US10208037B2, “Toll-like receptor-7 and -8 modulatory 1H imidazoquinoline derived compounds” (The University of Kansas, priority 2011, dated 2019)
# Experiments:
# Format in all cases: cell-based
# [1] = target: T1, TLR7 (Homo sapiens, UniProt Q9NYK1); assay: Schild plot analysis of inhibition of TLR7-induced activation
# T1 construct: expressed in transfected cells; host or cells: HEK293 (HEK-Blue-7 cells)
# T1 sequence (Q9NYK1 27-1049): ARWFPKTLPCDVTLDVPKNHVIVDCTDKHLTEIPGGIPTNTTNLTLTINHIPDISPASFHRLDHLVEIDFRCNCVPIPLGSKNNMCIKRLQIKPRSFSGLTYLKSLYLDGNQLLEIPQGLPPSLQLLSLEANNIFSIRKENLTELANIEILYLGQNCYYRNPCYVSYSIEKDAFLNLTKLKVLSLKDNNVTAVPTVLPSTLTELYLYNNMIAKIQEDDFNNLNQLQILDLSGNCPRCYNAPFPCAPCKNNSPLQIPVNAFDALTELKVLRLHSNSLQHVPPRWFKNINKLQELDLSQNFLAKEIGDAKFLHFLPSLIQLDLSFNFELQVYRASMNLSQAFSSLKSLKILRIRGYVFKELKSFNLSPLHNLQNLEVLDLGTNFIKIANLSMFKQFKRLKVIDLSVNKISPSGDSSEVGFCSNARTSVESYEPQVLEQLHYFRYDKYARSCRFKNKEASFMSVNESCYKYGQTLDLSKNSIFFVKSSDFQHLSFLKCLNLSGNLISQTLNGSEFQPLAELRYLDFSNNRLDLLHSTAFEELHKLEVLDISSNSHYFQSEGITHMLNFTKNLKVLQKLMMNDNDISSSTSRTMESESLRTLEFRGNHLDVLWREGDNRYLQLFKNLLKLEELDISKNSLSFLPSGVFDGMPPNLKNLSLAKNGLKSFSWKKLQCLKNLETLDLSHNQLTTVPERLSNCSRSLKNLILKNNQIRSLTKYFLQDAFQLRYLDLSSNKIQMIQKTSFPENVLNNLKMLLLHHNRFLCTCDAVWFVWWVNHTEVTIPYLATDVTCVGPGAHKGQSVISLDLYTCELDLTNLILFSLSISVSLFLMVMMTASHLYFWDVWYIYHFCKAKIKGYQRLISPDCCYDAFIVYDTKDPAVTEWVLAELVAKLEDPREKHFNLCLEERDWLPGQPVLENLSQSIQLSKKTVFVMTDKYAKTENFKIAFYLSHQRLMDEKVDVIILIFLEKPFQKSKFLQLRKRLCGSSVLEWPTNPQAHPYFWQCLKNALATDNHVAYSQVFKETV
# Description: (§1) Experiments were performed in checker-board format, using a liquid handler, in 384-well plates which permitted the concentrations of both agonist and antagonist to be varied simultaneously along the two axes of the plate. Either imidazoquinoline (TLR7-specific agonist) or CL075 (TLR8-specific agonist) was used at a starting concentration of 20 μg/mL, and were two-fold diluted serially (along the rows). Next, 47a or chloroquine was two-fold diluted serially in HEK detection medium (along columns). Reporter cells were then added, incubated, and NF-κB activation measured as described in the text. A and A′ (Y-axis) are defined respectively as the EC50 value in the absence of antagonist, and the EC50 values in the presence of varying concentrations of antagonist.
# [2] = target: T2, TLR8 (Homo sapiens, UniProt Q9NR97); assay: Schild plot analysis of inhibition of TLR8-induced activation
# T2 construct: expressed in transfected cells; host or cells: HEK293 (HEK-Blue-8 cells)
# T2 sequence (Q9NR97 27-1041): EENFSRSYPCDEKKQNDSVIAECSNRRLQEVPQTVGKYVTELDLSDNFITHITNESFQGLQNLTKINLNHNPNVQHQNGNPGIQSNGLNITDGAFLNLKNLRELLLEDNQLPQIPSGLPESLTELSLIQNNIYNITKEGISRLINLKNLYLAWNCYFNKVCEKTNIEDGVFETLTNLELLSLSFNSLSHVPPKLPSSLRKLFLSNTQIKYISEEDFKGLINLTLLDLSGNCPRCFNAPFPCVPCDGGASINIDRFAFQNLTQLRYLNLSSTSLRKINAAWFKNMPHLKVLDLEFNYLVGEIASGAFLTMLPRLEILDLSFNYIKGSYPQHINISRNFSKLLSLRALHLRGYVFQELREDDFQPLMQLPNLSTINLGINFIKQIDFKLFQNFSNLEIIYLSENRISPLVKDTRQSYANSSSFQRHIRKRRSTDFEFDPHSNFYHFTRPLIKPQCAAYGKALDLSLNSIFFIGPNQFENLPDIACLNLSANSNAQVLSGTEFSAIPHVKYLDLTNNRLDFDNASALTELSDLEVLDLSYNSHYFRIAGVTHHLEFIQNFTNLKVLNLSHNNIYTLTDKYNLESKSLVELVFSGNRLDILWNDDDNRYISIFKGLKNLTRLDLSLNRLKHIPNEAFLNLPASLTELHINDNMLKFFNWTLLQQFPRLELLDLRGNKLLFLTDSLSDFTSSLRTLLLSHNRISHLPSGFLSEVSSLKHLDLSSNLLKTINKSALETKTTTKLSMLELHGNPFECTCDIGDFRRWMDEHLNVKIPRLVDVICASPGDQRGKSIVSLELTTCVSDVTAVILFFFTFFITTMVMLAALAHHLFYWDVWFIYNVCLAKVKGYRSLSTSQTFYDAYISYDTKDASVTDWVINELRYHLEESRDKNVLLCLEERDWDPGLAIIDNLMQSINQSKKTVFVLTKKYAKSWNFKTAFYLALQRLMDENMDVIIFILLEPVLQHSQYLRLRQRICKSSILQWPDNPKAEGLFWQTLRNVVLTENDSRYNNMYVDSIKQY
# Description: as §1
# [3] = test system: TLR7 and TLR8-induced cytokine and chemokine release; assay: Inhibition of TLR7- and TLR8-mediated cytokine and chemokine production in human PBMCs; settings: hPBMCs
# Description: FIGS. 22A-[…] illustrate inhibition of TLR7-mediated (FIGS. 22A-22D) and TLR8-mediated (FIGS. 22E-[…]) proinflammatory cytokine production in human peripheral blood mononuclear cells by chloroquine or 47a. Proinflammatory cytokines were assayed by cytokine bead array methods after incubation of hPBMCs with graded concentrations of the test compound for 12 h in the presence of 10 μg/ml of either CL075 (TLR8 agonist) or gardiquimod (TLR7 agonist). FIGS. 23A-23D illustrate inhibition of TLR7-mediated (FIGS. 23A-23B) and TLR8-mediated (FIGS. 23C-3D) chemokine production in human peripheral blood mononuclear cells by chloroquine or 47a. Chemokines were assayed by cytokine bead array methods after incubation of hPBMCs with graded concentrations of the test compound for 12 h in the presence of 10 μg/ml of either CL075 (TLR8 agonist) or gardiquimod (TLR7 agonist). Aliquots (10^6 cells in 100 μL) of hPBMCs isolated from blood obtained from healthy human donors after informed consent by conventional Ficoll-Hypaque gradient centrifugation were stimulated for 12 h with graded concentrations of test compounds. The supernatant was isolated by centrifugation, diluted 1:20, and cytokines and chemokines were assayed in triplicate using analyte-specific cytokine/chemokine bead array assays as reported by us previously.^74
# [4] = target: T2, TLR8; assay: TLR8 reporter gene assay, antagonism (CL075 as agonist)
# Source text: (§2) The induction of NF-κB was quantified using HEK-Blue-3, HEK-Blue-7 and HEK-Blue-8 cells as previously described by us.^8,24,51 HEK293 cells were stably transfected with human TLR3 (or human TLR7 or human TLR8), MD2, and secreted alkaline phosphatase (sAP), and were maintained in HEK-Blue™ Selection medium containing zeocin and normocin. Stable expression of secreted alkaline phosphatase (sAP) under control of NF-κB/AP-1 promoters is inducible by the TLR3 (or TLR7 or TLR8) agonists, and extracellular sAP in the supernatant is proportional to NF-κB induction. HEK-Blue cells were incubated at a density of ˜10^5 cells/ml in a volume of 80 μl/well, in 384-well, flat-bottomed, cell culture-treated microtiter plates until confluency was achieved, and subsequently graded concentrations of stimuli. sAP was assayed spectrophotometrically using an alkaline phosphatase-specific chromogen (present in HEK-detection medium as supplied by the vendor) at 620 nm.
# (§3) Antagonism assays were done as described by us earlier^73 using the following agonists at a constant concentration: TLR3 Poly(I:C) (10 ng/mL); TLR7: gardiquimod (1 μg/mL); TLR8: CL075 (1 μg/mL) mixed with graded concentrations of the test compounds.
# [5] = target: T1, TLR7; assay: TLR7 reporter gene assay, antagonism (gardiquimod as agonist)
# Source text: as §2, §3
smiles,measurement,setting,value
"Nc1nc2ccccc2c2c1nc(CCCc1nc3c(N)nc4ccccc4c3n1Cc1ccccc1)n2Cc1ccccc1 [Compound 47a, 2,2′-(propane-1,3-diyl)bis(1-benzyl-1H-imidazo[4,5-c]quinolin-4-amine)]","Schild plot slope, TLR7 inhibition",[1],1.12
same,"Schild plot slope, TLR8 inhibition",[2],0.51
same,IC50,"[3]; Homo sapiens, PBMC, 12 h, 10 μg/ml CL075 or gardiquimod",50 to 300 nM
same,Inhibition of TNF-α and IL-1β production (in words),[3],potently inhibits
same,TLR8 antagonistic activity (in words),[4],potent antagonistic activity
same,IC50,"[4]; agonist CL075 1 μg/mL, ND = not detected",3.2 µM
same,TLR7 antagonistic activity (in words),[5],potent antagonistic activity
same,IC50,"[5]; agonist gardiquimod 1 μg/mL, ND = not detected",3.1 µM
